Laboratory results reported in US20150265670A1, “AGENT FOR PREVENTING OR IMPROVING DECLINE IN BRAIN FUNCTION” (KYOWA HAKKO BIO CO., LTD., priority 2012, published 2015).

How the values were obtained:
[1] = test system: bilateral common carotid arteries occlusion C57BL/6J mice; assay: Y-maze test; format: in vivo; settings: single agent, after 7 days administration; for spontaneous alternation behavior rate (Alternation), memory behavior: high dose 100 mg/kg oral; for spontaneous alternation behavior rate (Alternation): low dose 40 mg/kg oral, compared to distilled water group (Group 2)
Method: (§1) Experimental Example: 10-week-old male C57BL/6J mice (CLEA Japan, Inc. approximately 25 g of average body weight per mouse) were preliminarily acclimated for 1 week, and provided for experiments. Citrulline and glutathione were obtained from KYOWA HAKKO BIO CO., LTD.
(§2) C57BL/6J mice were divided into a sham-operation group (Group 1) and a bilateral common carotid arteries occlusion group, which was performed under halothane anesthesia for 20 minutes. One day after reperfusion, the bilateral common carotid arteries occlusion group was further divided into a distilled water-treated group (Group 2), a low-dose citrulline-treated group (40 mg/kg: Group 3), a low-dose glutathione-treated group (40 mg/kg: Group 4), a high-dose citrulline-treated group (100 mg/kg: Group 5), a high-dose glutathione-treated group (100 mg/kg: Group 6), and a combination treatment group of a low dose of citrulline and a low dose of glutathione (each 40 mg/kg: Group 7). Each sample was orally administered for 12 days. One week after starting administration, learning memory-improving effects were examined by a Y-maze test, a passive avoidance test, and a novel object recognition test. After evaluating learning memory functions, the hippocampus was removed and viability of hippocampal nerve cells was evaluated.
In the Y-maze test, a Y-maze apparatus with three arms (50×16×32 cm) was used. Mice were placed at any one arm of the Y-maze and were allowed to explore freely through the maze for 8 minutes. The sequence of arm entries was recorded. The number of entries into each arm was counted during the measurement time, which was defined as the total number of entries. Of them, the successive entry into the three different arms was examined, and this number was defined as the spontaneous alternation behavior number. The spontaneous alternation behavior number was divided by (the total number of arm entries minus two), and then multiplied by 100, which was defined as the spontaneous alternation behavior rate (Alternation) and used as an index for spontaneous alternation behavior.

[2] = test system: bilateral common carotid arteries occlusion C57BL/6J mice; assay: Passive avoidance test; format: in vivo; settings: single agent, after 7 days administration; for latency time spent in the light compartment, memory behavior: high dose 100 mg/kg oral; for latency time spent in the light compartment: low dose 40 mg/kg oral, compared to Group 2
Method: as §1, §2
The passive avoidance test was performed using a box consisting of dark (25×25×25 cm) and light compartments (14×10×25 cm) and being equipped with an electrical stimulation apparatus at the bottom of the dark compartment. During training, as soon as the mouse entered the dark compartment from the light compartment, the door was closed, and an electrical stimulation (0.3 mA, for 2 seconds) was delivered. Twenty four hours after training, the mouse was placed again in the light compartment, and the latency time spent in the light compartment was recorded with a maximum latency of 300 seconds.

[3] = test system: bilateral common carotid arteries occlusion C57BL/6J mice; assay: Novel object recognition test; format: in vivo; settings: single agent, after 7 days administration; for frequency of exploring the novel object, memory behavior: high dose 100 mg/kg oral; for frequency of exploring the novel object: low dose 40 mg/kg oral
Method: as §1, §2
The novel object recognition test was performed after mice were individually acclimated to the open field apparatus (35×25×35 cm) for 2 days. During training, mice were allowed to explore freely for 10 minutes in an apparatus where two identical objects were symmetrically placed. After 1 hour, one object was replaced by a novel object, and mice were allowed to explore freely for 5 minutes. Object exploration was defined as standing on the objects, touching the object with the nose, or sniffing the object within 1 cm from the object. A ratio of the frequency of exploring the familiar or novel object over the total exploration frequency was calculated, and used as an index for visual recognition memory.

[4] = test system: hippocampal nerve cells (CA1 pyramidal cell layer); assay: Evaluation of viability of hippocampal nerve cells; format: in vivo, mice; settings: single agent, 12 days administration
Method: as §1, §2
Twelve days after bilateral occlusion of the common carotid arteries, mice were anesthetized with pentobarbital sodium, and perfused with ice-cold phosphate buffer (PBS, pH 7.4) until the blood in the body was completely removed. Immediately, mice were perfused with a fixative solution containing 4% paraformaldehyde. The brain tissues were fixed at 4° C. for 24 hours, and coronal sections having a thickness of 50 μm were prepared. Serial sections containing the hippocampus were stained with propidium iodide (PI, 5 μmol/L) dissolved in PBS and observed under a fluorescent microscope. Surviving and non-surviving nerve cells in the CA1 pyramidal cell layer of the hippocampus were counted at 1.4 to 1.8 mm posterior to bregma, and cells with PI-positive nuclei and typical morphological characteristics were defined as […]. The cell viability was calculated from a ratio to the average number of surviving nerve cells in Group 1.

[5] = low dose 40 mg/kg oral, compared to Group 2

SMILES	spontaneous alternation behavior rate (Alternation), memory behavior [1]	spontaneous alternation behavior rate (Alternation) [1]	latency time spent in the light compartment, memory behavior [2]	latency time spent in the light compartment [2]	frequency of exploring the novel object, memory behavior [3]	frequency of exploring the novel object [3]	viability of hippocampal nerve cells ([4]; high dose 100 mg/kg oral)	viability of hippocampal nerve cells [4, 5]
NC(=O)NCCC[C@H](N)C(=O)O [citrulline]	remarkably improved effect of memory behavior	cannot be improved	remarkably improved effect of memory behavior	cannot be improved	remarkably improved effect of memory behavior	cannot be increased	nerve cell-protecting effect	cannot be improved
N[C@@H](CCC(=O)N[C@@H](CS)C(=O)NCC(=O)O)C(=O)O [glutathione]	remarkably improved effect of memory behavior	cannot be improved	remarkably improved effect of memory behavior	cannot be improved	remarkably improved effect of memory behavior	cannot be increased	nerve cell-protecting effect	cannot be improved
